These results are taken from patent US11185073B2, “Microbiocidal quinoline (thio)carboxamide derivatives” (SYNGENTA PARTICIPATIONS AG, priority 2017, dated 2021).

What is called melting point is the temperature, or range, at which the solid turns liquid.

For series [1], the system named is Botryotinia fuckeliana (Botrytis cinerea). As to the kind of experiment: Botryotinia fuckeliana (Botrytis cinerea) / liquid culture (gray mould). Conditions: 72 h, growth inhibition photometrically 3-4 days after application, compared to untreated control. Type of series: cell-based.
Series [2] concerns Gibberella zeae (Fusarium graminearum). As to the kind of experiment: whole plant or invertebrate. Type of series: in vivo. To be noted: in Triticum aestivum, read-out: control of Gibberella zeae.
Series [3] has as its system Glomerella lagenarium (Colletotrichum lagenarium). The experiment in a line: Glomerella lagenarium (Colletotrichum lagenarium) / liquid culture (anthracnose). Type of series: cell-based. To be noted: Colletotrichum orbiculare, growth inhibition photometrically 3-4 days after application, compared to untreated control.
The subject of series [4] is Magnaporthe grisea (Pyricularia oryzae). The experiment in a line: microbe, parasite or virus in culture. The format is cell-based. Conditions: 72 h, read-out: control of Magnaporthe grisea.
In series [5] the test system is Monographella nivalis (Microdochium nivale). The experiment in a line: Monographella nivalis (Microdochium nivale) / liquid culture (foot rot cereals). Type of series: cell-based. To be noted: 96 h, growth inhibition photometrically 4-5 days after application, compared to untreated control.
For series [6], the system named is Fusarium culmorum. As to the kind of experiment: whole plant or invertebrate. The format is in vivo. To be noted: in Triticum aestivum, read-out: control of Fusarium culmorum.
The test system of series [7] is Fusarium culmorum. As to the kind of experiment: microbe, parasite or virus in culture. Type of series: cell-based. To be noted: 72 h, read-out: control of Fusarium culmorum.

Regarding `CC(COC1CCC(F)(F)CC1)(CC(F)(F)F)NC(=O)c1cnc2c(F)cccc2c1` (stereo not drawn) [E.003, N-[1-[(4,4-difluoro-cyclohexoxy)-methyl]-3,3,3-trifluoro-1-methyl-propyl]-8-fluoro-quinoline-3-carboxamide], the melting point fell in the range of 42 to 44 °C. The compound further gave an inhibition of growth at 20 ppm in series [1] of no less than 80%. Moreover, the pest or weed control at 200 ppm in series [2] is no less than 80%. The compound further returned an inhibition of growth at 20 ppm in series [3] of no less than 80%. Also, the inhibition of growth at 20 ppm in series [4] is no less than 80%. For the same compound, the inhibition of growth at 20 ppm in series [5] is no less than 80%. For the same compound, in series [6], the pest or weed control at 200 ppm was no less than 80%. For the same compound, the inhibition of growth at 20 ppm in series [7] was no less than 80%.

For `CC(COC1CCCCCC1)(CC(F)(F)F)NC(=O)c1cnc2c(F)cccc2c1` (stereo not drawn) [E.026, N-[1-(cyclohept-oxymethyl)-3,3,3-trifluoro-1-methyl-propyl)-8-fluoro-quinoline-3-carboxamide], the melting point was 80 to 85 °C. The same compound came in with an inhibition of growth at 20 ppm in series [1] of no less than 80%. The inhibition of growth at 20 ppm in series [3] was no less than 80%. For the same compound, the inhibition of growth at 20 ppm in series [4] is no less than 80%. The same compound registered an inhibition of growth at 20 ppm in series [5] of no less than 80%. Besides, the pest or weed control at 200 ppm in series [6] was no less than 80%. Further, the inhibition of growth at 20 ppm in series [7] was no less than 80%.

For `CC1(C)CC(OCC(C)(CC(F)(F)F)NC(=O)c2cnc3c(Cl)cccc3c2)C1` (stereo not drawn) [E.002, 8-chloro-N-[1-[(3,3-dimethyl-cyclobutoxy)-methyl]-3,3,3-trifluoro-1-methylpropyl]-quinoline-3-carboxamide], the melting point fell in the range of 127 to 130 °C. In addition, the inhibition of growth at 20 ppm in series [1] was no less than 80%. Further, in series [3], the inhibition of growth at 20 ppm was no less than 80%. For the same compound, the inhibition of growth at 20 ppm in series [4] is no less than 80%. In addition, the inhibition of growth at 20 ppm in series [5] is no less than 80%. Moreover, in series [6], the pest or weed control at 200 ppm is no less than 80%. Also, in series [7], the inhibition of growth at 20 ppm was no less than 80%.

For `CC(C)(C)COCC(C)(CC(F)(F)F)NC(=O)c1cnc2c(F)cccc2c1` (stereo not drawn) [E.001, N-[1-(2,2-dimethyl-propoxymethyl)-3,3,3-trifluoro-1-methyl-propyl]-8-fluoro-quinoline-3-carboxamide], the melting point was 74 to 78 °C. In series [1], this compound registered an inhibition of growth at 20 ppm of no less than 80%. The pest or weed control at 200 ppm in series [2] is no less than 80%. This compound also returned an inhibition of growth at 20 ppm in series [3] of no less than 80%. Also, the inhibition of growth at 20 ppm in series [4] is no less than 80%. The inhibition of growth at 20 ppm in series [5] was no less than 80%. Moreover, the pest or weed control at 200 ppm in series [6] was no less than 80%. Further, the inhibition of growth at 20 ppm in series [7] was no less than 80%.
